Source: US20040116440A1, “Bombesin receptor antagonists” (priority 2000, published 2004)
pIC50: −log10 of the molar value.

Assays:
[1] = target: T1, cloned human GRP-preferring receptor (BB2) (Homo sapiens, UniProt P30550); assay: BB2 binding assay, [125I][Tyr4]bombesin competition on membranes of CHO-K1 cells; details: 90 minutes
T1 construct: expressed in transfected cells; membranes prepared from the cells
From the text: (§1) The compounds of the invention have been evaluated in receptor binding assays which measure their affinity in a cloned human NMB-preferring receptor (BB1) assay and in a cloned human GRP-preferring receptor (BB2) assay. […] Accordingly they may be useful for the diagnosis, prevention, or treatment of male sexual dysfunction in humans and animals, female sexual dysfunction in humans and animals, anxiety and panic disorders, social phobia, depression, psychoses, sleeping disorders, memory impairment, pulmonary hypertension, lung repair and lung development disorders, cancer including prostate cancer and pancreatic cancer, hepatic porphyria, gastrointestinal secretory disturbances, gastrointestinal disorders including colitis, Crohn's disease and inflammatory bowel disease, emesis, anorexia, pain, seasonal affective disorders, feeding disorders, or pruritus.
(§2) In the following experiments, measurement of BB1 and BB2 binding was as follows. CHO-K1 cells stably expressing cloned human NMB (for (BB1 assay) and GRP receptors (for BB2 assay) were routinely grown in Ham's F12 culture medium supplemented with 10% foetal calf serum and 2 mM glutamine. For binding experiments, cells were harvested by trypsinization, and stored frozen at −70° C. in Ham's F12 culture medium containing 5% DMSO until required. On the day of use, cells were thawed rapidly, diluted with an excess of culture medium, and centrifuged for 5 minutes at 2000 g. Cells were resuspended in 50 mM Tris-HCl assay buffer (pH 7.4 at 21° C., containing 0.02% BSA, […] bacitracin, […] chymostatin, […] leupeptin, and 2 mM phosphoramidon), counted, and polytronned (setting 5, 10 sec) before centrifuging for 10 minutes at 28,000 g. The final pellet was resuspended in assay buffer to a final cell concentration of 1.5×10^5/mL. For binding assays, 200 μL aliquots of membranes were incubated with [^125I][Tyr^4]bombesin (<0.1 nM) in the presence and absence of test compounds (final assay volume 250 μL) for 60 minutes and 90 minutes for NMB and GRP receptors, respectively. Nonspecific binding was defined by 1 μM bombesin. Assays were terminated by rapid filtration under vacuum onto Whatman GF/C filters presoaked in 0.2% PEI for >2 hours, and washed 50 mM Tris-HCl (pH 6.9 at 21° C.; 6×1 mL). Radioactivity bound was determined using a gamma counter.
All competition data was analysed using nonlinear regression utilising iterative curve-plolting procedures in Prism® (GraphPad Software Inc., San Diego, USA). IC50 values were corrected to Ki values using the Cheng-Prusoff equation (Cheng Y., Prusoff W. H., Biochem. Pharmacol. 22: 3099-3108, 1973).

[2] = target: T2, cloned human NMB-preferring receptor (BB1) (Homo sapiens, UniProt P28336); assay: BB1 binding assay, [125I][Tyr4]bombesin competition on membranes of CHO-K1 cells; details: 60 minutes
T2 construct: expressed in transfected cells; membranes prepared from the cells
From the text: as §1
as §2, with “For binding assays, 200 μL aliquots of membranes were incubated with [^125I][Tyr^4]bombesin (<0.1 nM) in the presence and absence of test compounds (final assay volume 250 μL) for 60 minutes and 90 minutes for NMB and GRP receptors, respectively. Nonspecific binding was defined by 1 μM bombesin. Assays were terminated by rapid filtration under vacuum onto Whatman GF/C filters presoaked in 0.2% PEI for >2 hours, and washed 50 mM Tris-HCl (pH 6.9 at 21° C.; 6×1 mL).” left out
All competition data was analysed using nonlinear regression utilising iterative curve-plolting procedures in Prism® (GraphPad Software Inc., San Diego, USA). […]

[3] = Table 2, N-acyl derivatives of Intermediate VIa
[4] = Table 6, N-terminal sulfonamide derivatives

T1 sequence (P30550 whole entry): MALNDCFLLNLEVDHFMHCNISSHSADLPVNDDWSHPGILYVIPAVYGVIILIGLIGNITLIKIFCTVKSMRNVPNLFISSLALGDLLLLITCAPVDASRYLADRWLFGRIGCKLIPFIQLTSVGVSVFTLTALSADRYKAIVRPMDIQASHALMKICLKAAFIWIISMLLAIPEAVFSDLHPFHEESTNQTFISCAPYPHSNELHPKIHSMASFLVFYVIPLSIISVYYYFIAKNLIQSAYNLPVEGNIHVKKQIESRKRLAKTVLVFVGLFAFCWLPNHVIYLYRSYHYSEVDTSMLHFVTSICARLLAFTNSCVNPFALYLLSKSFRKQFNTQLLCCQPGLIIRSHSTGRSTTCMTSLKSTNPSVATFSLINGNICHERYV
T2 sequence (P28336 whole entry): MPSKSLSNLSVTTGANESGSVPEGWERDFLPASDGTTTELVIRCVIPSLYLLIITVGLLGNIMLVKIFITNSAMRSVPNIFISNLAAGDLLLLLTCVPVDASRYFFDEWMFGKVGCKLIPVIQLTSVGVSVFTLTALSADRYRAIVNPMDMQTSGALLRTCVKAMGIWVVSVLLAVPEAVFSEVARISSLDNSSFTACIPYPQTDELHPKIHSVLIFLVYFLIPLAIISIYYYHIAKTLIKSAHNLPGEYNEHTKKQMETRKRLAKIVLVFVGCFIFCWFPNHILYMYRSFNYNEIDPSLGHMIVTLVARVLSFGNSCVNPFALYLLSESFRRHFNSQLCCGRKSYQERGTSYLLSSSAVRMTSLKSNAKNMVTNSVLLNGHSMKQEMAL

Molecule	pIC50 [1, 3]	pIC50 [1, 4]	pIC50 [2, 4]	pIC50 [2, 3]
Cc1ccccc1CC(=O)N[C@@](C)(Cc1c[nH]c2ccccc12)C(=O)NCC1(c2ccccn2)CCCCC1 [Example 20, (S)-3-(1H-Indol-3-yl)-2-methyl-N-(1-pyridin-2-yl-cyclohexylmethyl)-2-(2-o-tolyl-ethanoylamino)-propionamide]	< 5.00	–	–	–
C[C@@](Cc1c[nH]c2ccccc12)(NS(=O)(=O)c1cc(Cl)sc1Cl)C(=O)NCC1(c2ccccn2)CCCCC1 [Example 126, (S)-2-(2,5-Dichloro-thiophene-3-sulfonylamino)-3-(1H-indol-3-yl)-2-methyl-N-(1-pyridin-2-yl-cyclohexylmethyl)-propionamide]	–	< 5.00	–	–
C[C@@](Cc1c[nH]c2ccccc12)(NS(=O)(=O)c1cc(C(F)(F)F)ccc1Cl)C(=O)NCC1(c2ccccn2)CCCCC1 [Example 135, (S)-2-(2-Chloro-5-trifluoromethyl-benzenesulfonylamino)-3-(1H-indol-3-yl)-2-methyl-N-(1-pyridin-2-yl-cyclohexylmethyl)-propionamide]	–	< 5.00	6.20	–
C[C@@](Cc1c[nH]c2ccccc12)(NS(=O)(=O)c1ccc(C(F)(F)F)cc1[N+](=O)[O-])C(=O)NCC1(c2ccccn2)CCCCC1 [Example 136, (S)-3-(1H-Indol-3-yl)-2-methyl-2-(2-nitro-4-trifluoromethyl-benzenesulfonylamino)-N-(1-pyridin-2-yl-cyclohexylmethyl)-propionamide]	–	< 5.00	6.12	–
Dimethylamino-N {(S)-2-(1H-indol-3-yl)-1-methyl-1-[(1-pyridin-2-yl-cyclohexyl-methyl)-carbamoyl]-ethyl}-benzamide [Example 11]	–	–	–	5.60
